Legend:
[1] = Selectivity index, ratio of CC50 for African green monkey Vero cells to IC50 for Trypanosoma cruzi trypomastigotes; format: toxicity; details: read-out: Ratio CC50/IC50
Leishmania donovani [2] = test: Antileishmanial activity against Leishmania donovani promastigotes; format: functional, organism-based
[3] = Selectivity index, ratio of CC50 for African green monkey Vero cells to IC50 for Leishmania donovani promastigotes; format: toxicity; details: read-out: Ratio CC50/IC50
Leishmania donovani [4] = test: Potency index, ratio of Artemisinin IC50 to test compound IC50 for antileishmanial activity against Leishmania donovani promastigotes; format: functional
Trypanosoma cruzi [5] = test: Antitrypanosomal activity against Trypanosoma cruzi epimastigotes; format: functional, organism-based
Trypanosoma cruzi [6] = test: Antitrypanosomal activity against Trypanosoma cruzi trypomastigotes; format: functional, organism-based
Vero = test: Cytotoxicity against African green monkey Vero cells up to 4.76 ug/ml by neutral red assay; format: cell-based; details: chlorocebus sabaeus, dose <=4.76 µg/ml
[7] = Selectivity index, ratio of CC50 for African green monkey Vero cells to IC50 for Trypanosoma cruzi epimastigotes; format: toxicity; details: read-out: Ratio CC50/IC50
Trypanosoma cruzi [8] = test: Trypanocidal activity against Trypanosoma cruzi epimastigotes at 100 uM measured after 24 hrs; format: functional
[9] = Cytotoxicity against African green monkey Vero cells by neutral red assay; format: cell-based; details: chlorocebus sabaeus
Trypanosoma cruzi [10] = test: Potency index, ratio of artesunate IC50 to test compound IC50 for antitrypanosomal activity against Trypanosoma cruzi trypomastigotes; format: functional
Trypanosoma cruzi [11] = test: Potency index, ratio of benznidazole IC50 to test compound IC50 for antitrypanosomal activity against Trypanosoma cruzi trypomastigotes; format: functional

## CC(=O)CCCC(C)(C)C(=O)/C=C/C(=O)/C=C/c1ccc(C(=O)NCc2ccccc2)cc1
[1]
  selectivity ratio: ≥ 1.05
Leishmania donovani [2]
  IC50: 5.39 µM
  IC90: 13.5 µM
[3]
  selectivity ratio: 1.98
Leishmania donovani [4]
  Ratio IC50: >10
Trypanosoma cruzi [5]
  IC50: > 100 µM
Trypanosoma cruzi [6]
  IC50: 10.2 µM

## COC(=O)c1ccc(/C=C/[C@]23C=C[C@@]4(OO2)C(C)(C)CCC(OC(C)=O)[C@]4(C)O3)cc1 (mixture of isomers)
Leishmania donovani [2]
  IC50: 7.01 µM
  IC90: 15.2 µM
[3]
  selectivity ratio: 1.59
Leishmania donovani [4]
  Ratio IC50: >10
Vero
  Activity: Non-Toxic

## CC1(C)CCC[C@]2(C)O[C@@]3(/C=C/c4ccc(C(=O)NCc5ccccc5)cc4)C=C[C@@]12OO3 (racemic)
[1]
  selectivity ratio: ≥ 9.21
Leishmania donovani [2]
  IC50: 2.47 µM
  IC90: 15.7 µM
[7]
  selectivity ratio: ≥ 4.3
Trypanosoma cruzi [8]
  Activity: 100%
[3]
  selectivity ratio: 4.33
Leishmania donovani [4]
  Ratio IC50: >10
Trypanosoma cruzi [5]
  IC50: 2.48 µM
[9]
  CC50: > 10.7 µM
Trypanosoma cruzi [10]
  Ratio IC50: 10
Trypanosoma cruzi [11]
  Ratio IC50: 13
Trypanosoma cruzi [6]
  IC50: 1.16 µM

## CC1(C)CC[C@H](O)[C@]2(C)O[C@@]3(/C=C/c4ccc(C(=O)NCc5ccccc5)cc4)C=C[C@@]12OO3 (racemic)
Leishmania donovani [2]
  IC50: 3.47 µM
  IC90: 5.42 µM
[3]
  selectivity ratio: 2.69
Leishmania donovani [4]
  Ratio IC50: >10
[9]
  CC50: ≥ 9.33 µM

## CC1(C)CC[C@@H](O)[C@]2(C)O[C@@]3(C)C=C[C@@]12OO3 (racemic)
Leishmania donovani [2]
  IC50: > 100 µM
  IC90: > 100 µM

## CC1(C)CC=C[C@]2(C)O[C@@]3(C)C=C[C@@]12OO3 (racemic)
Leishmania donovani [2]
  IC50: > 100 µM
  IC90: > 100 µM

## CC1(C)CC=C[C@]2(C)O[C@@]3(C)CC[C@@]12OO3 (racemic)
Leishmania donovani [2]
  IC50: > 100 µM
  IC90: > 100 µM

## CC1(C)CCC(=O)[C@]2(C)O[C@@]3(C)C=C[C@@]12OO3 (racemic)
Leishmania donovani [2]
  IC50: > 100 µM
  IC90: > 100 µM

## CC1(C)CC[C@@H](O)[C@]2(C)O[C@@]3(C)CC[C@@]12OO3 (racemic)
Leishmania donovani [2]
  IC50: > 100 µM
  IC90: > 100 µM

## CC1(C)CC[C@@H](O)[C@]2(C)O[C@@]3(/C=C/c4ccc(C(=O)NCc5ccccc5)cc4)C=C[C@@]12OO3 (racemic)
[1]
  selectivity ratio: ≥ 16.6
Leishmania donovani [2]
  IC50: 7.59 µM
  IC90: 15.2 µM
[7]
  selectivity ratio: ≥ 3.88
Trypanosoma cruzi [8]
  Activity: 100%
[3]
  selectivity ratio: 1.36
Leishmania donovani [4]
  Ratio IC50: >10
Vero
  Activity: Non-Toxic
Trypanosoma cruzi [5]
  IC50: 2.66 µM
Trypanosoma cruzi [10]
  Ratio IC50: 20
Trypanosoma cruzi [11]
  Ratio IC50: 13
Trypanosoma cruzi [6]
  IC50: 0.62 µM

## CC(=O)O[C@H]1CCC(C)(C)[C@@]23C=C[C@@](C)(OO2)O[C@@]13C (racemic)
Leishmania donovani [2]
  IC50: > 100 µM
  IC90: > 100 µM

## CC1(C)CCC[C@]2(C)O[C@@]3(C)C=C[C@@]12OO3 (racemic)
Leishmania donovani [2]
  IC50: > 100 µM
  IC90: > 100 µM

## CC1(C)CC[C@H](O)[C@]2(C)O[C@@]3(C)C=C[C@@]12OO3 (racemic)
Leishmania donovani [2]
  IC50: > 100 µM
  IC90: > 100 µM

## CC(=O)O[C@@H]1CCC(C)(C)[C@@]23CC[C@@](C)(OO2)O[C@@]13C (racemic)
Leishmania donovani [2]
  IC50: > 100 µM
  IC90: > 100 µM

## CC1(C)CCC(=O)[C@]2(C)O[C@@]3(C)CC[C@@]12OO3 (racemic)
Leishmania donovani [2]
  IC50: > 100 µM
  IC90: > 100 µM

## COC(=O)c1ccc(/C=C/[C@]23C=C[C@@]4(OO2)C(C)(C)CCC[C@]4(C)O3)cc1 (racemic)
[1]
  selectivity ratio: ≥ 15.3
Leishmania donovani [2]
  IC50: 8.38 µM
  IC90: 18.9 µM
[7]
  selectivity ratio: ≥ 5.56
Trypanosoma cruzi [8]
  Activity: 100%
[3]
  selectivity ratio: 1.54
Leishmania donovani [4]
  Ratio IC50: >10
Trypanosoma cruzi [5]
  IC50: 2.27 µM
[9]
  CC50: > 12.8 µM
Trypanosoma cruzi [10]
  Ratio IC50: 10
Trypanosoma cruzi [11]
  Ratio IC50: 13
Trypanosoma cruzi [6]
  IC50: 0.84 µM

## CC1(C)CC[C@H](O)[C@]2(C)O[C@@]3(C)CC[C@@]12OO3 (racemic)
Leishmania donovani [2]
  IC50: > 100 µM
  IC90: > 100 µM

## COC(=O)c1ccc(/C=C/[C@]23C=C[C@@]4(OO2)C(C)(C)CC[C@@H](O)[C@]4(C)O3)cc1 (racemic)
Leishmania donovani [2]
  IC50: 5.18 µM
  IC90: 15.5 µM
[3]
  selectivity ratio: 2.38
Leishmania donovani [4]
  Ratio IC50: >10
[9]
  CC50: > 11.1 µM

## CC(=O)O[C@@H]1CCC(C)(C)[C@@]23C=C[C@@](C)(OO2)O[C@@]13C (racemic)
Leishmania donovani [2]
  IC50: > 100 µM
  IC90: > 100 µM

## C[C@@H]1[C@H](O)[C@@H](C)/C=C/C=C/C=C/C=C/C=C/C=C/C=C/[C@H](O[C@@H]2O[C@H](C)[C@@H](O)[C@H](N)[C@@H]2O)C[C@@H]2O[C@](O)(C[C@@H](O)C[C@@H](O)[C@H](O)CC[C@@H](O)C[C@@H](O)CC(=O)O[C@H]1C)C[C@H](O)[C@H]2C(=O)O [AMPHOTERICIN B]
Leishmania donovani [2]
  IC50: 0.19 µM
  IC90: 0.41 µM

## C[C@@H]1CC[C@H]2[C@@H](C)C(=O)O[C@@H]3O[C@@]4(C)CC[C@@H]1[C@]32OO4 [ARTEMISININ]
Leishmania donovani [2]
  IC50: > 100 µM

## C[C@H]1[C@H](OC(=O)CCC(=O)O)O[C@@H]2O[C@@]3(C)CC[C@H]4[C@H](C)CC[C@@H]1[C@@]24OO3 [ARTESUNATE]
Leishmania donovani [2]
  IC50: 12.1 µM
Trypanosoma cruzi [5]
  IC50: 9.44 µM
Trypanosoma cruzi [6]
  IC50: 13 µM

## O=C(Cn1ccnc1[N+](=O)[O-])NCc1ccccc1 [BENZNIDAZOLE]
Trypanosoma cruzi [5]
  IC50: 32.5 µM
Trypanosoma cruzi [6]
  IC50: 14.9 µM

## N=C(N)c1ccc(OCCCCCOc2ccc(C(=N)N)cc2)cc1 [PENTAMIDINE]
Leishmania donovani [2]
  IC90: 5.29 µM
